Measurements reported in patent US5786447A, “Opioid peptide analogs” (Astra AB, priority 1994, dated 1998).
Positions of bridges follow the written chain, without caps; N, C: chain ends. Non-standard residues stand in square brackets, D forms with d. Residues, ends and D or L forms follow the SMILES beside them. 2Nal = N[C@@H](Cc1ccc2ccccc2c1)C(=O)O; Dmt = Cc1cc(O)cc(C)c1C[C@H](N)C(=O)O; dOrn = NCCC[C@@H](N)C(=O)O; NMeAib = CNC(C)(C)C(=O)O; Sar = CNCC(=O)O

How the values were obtained:
[1] = biological target: T1, μ opioid receptor (Rattus norvegicus, UniProt P33535); assay: μ opioid receptor binding, displacement of [3H]DAMGO from rat brain membranes; conditions: [3H]DAMGO 0.7 nM, Cheng-Prusoff, means of three determinations ± SEM
T1 construct: from tissue; host or cells: rat brain membranes (cerebellum removed), Sprague-Dawley
From the text: (§1) In the case of κ-ligands guinea pig brain homogenates were used, since the relative proportion of κ-binding sites is higher in guinea pig brain than in rat brain. The experimental procedure being used in our laboratory represents a modified version of the binding assay described by Paternak et al. (Mol. Pharmacol. 11 340-351, (1975)). Male Sprague-Dawley rats (300-350 g) from the Canadian Breeding Laboratories were decapitated and after removal of the cerebellum the brains were homogenized in 30 volumes of ice-cold standard buffer (50 mM Tris-HCl, pH 7.7). After centrifugation at 30,000×g for 30 min at 4° C. the membranes were reconstituted in the original volume of standard buffer and incubated for 30 min at 37° C. (to release bound endogenous ligands). […] The incubation was terminated by filtration through Whatman GF/B filters under vacuum at 4° C. Following two washings with 5 ml portions of ice-cold standard buffer the filters were transferred to scintillation vials and treated with 1 ml Protosol (New England Nuclear) for 30 min prior to the addition of 0.5 ml acetic acid and 10 ml Aquasol (New England Nuclear). After shaking for 30 min the vials were counted at an efficiency of 40-45%. All experiments were performed in duplicates and repeated at least three times. Specific binding of each of the three radioglands was defmed by performing incubations in the presence of cold DAMGO, DSLET and U69,563, respectively, at a concentration of 1 micromolar. Values of half-maximal inhibition (IC50) of specific binding were obtained graphically from semilogarithmic plots. From the measured IC50-values, binding inhibition constants (Ki) were then calculated based on Cheng and Prussoff's equation (Biochem. Pharmacol. 22, 3099-3102 (1973)). Ratios of the Ki -values in the μ-, δ- and κ-representative bindning assays are a measure of the receptor selectivity of the compound under investigation (e.g. Ki^δ/ Ki^μ indicated the selectivity for μ-receptors versus δ-receptors).

[2] = biological target: T2, δ opioid receptors (Mus musculus, UniProt P32300); assay: MVD assay: inhibition of electrically evoked contractions of the mouse vas deferens (δ antagonist Ke); type: cell-based; conditions: means of 3-8 determinations ± SEM; for Ke in the MVD assay, antagonist potency against DPDPE: δ agonist DPDPE; for Ke in the MVD assay, antagonist potency against [D-Ala2]deltorphin I: δ agonist [D-Ala2]deltorphin I; for Ke in the MVD assay, antagonist potency against [Leu5]enkephalin: δ agonist [Leu5]enkephalin
T2 construct: Bioassays Using Isolated Organ Preparations; from tissue; host or cells: isolated mouse vas deferens
Method: (§2) a) Bioassays based on inhibition of electrically evoked contractions of the mouse vas deferens (MVD) and of the guinea pig ileum (GPI). In the GPI assay the opioid effect is primarily mediated by μ opioid receptors, whereas in the MVD assay the inhibition of the contractions is mostly due to interaction with δ opioid receptors.
(§3) The GPI and MVD bioassays were carried out as reported in P. W. Schiller et al., Biochem. Biophys. Res. Commun 85, 1332-1338 (1978) and J. Di Maio et al., J. Med. Chem. 25, 1432-1438 (1982). A log dose-response curve was determined with [Leu^5 ] enkephalin as standard for each ileum and vas preparation, and IC50 values of the compounds being tested were normalized according to A. A. Waterfield et al., Eur. J. Pharmacol. 58, 11-18 (1979). Ke values for the cyclic β-casomorphin analogs with mixed μ agonist/δ antagonist properties (δ antagonist effect) were determined from the ratio of IC50 values (DR) obtained in the presence and absence of a fixed antagonist concentration (a) (Ke =a/(DR-1)) H. W. Kosterlitz & A. J. Watt, Br. J. Pharmacol. 33, 266-276 (1968). These determinations were made with the MVD assay, using three different δ-selective agonists ([Leu^5 ]enkephalin, DPDPE and [D-Ala^2]deltorphin I].

[3] = biological target: T3, δ opioid receptor (Rattus norvegicus, UniProt P33533); assay: δ opioid receptor binding, displacement of δ-selective radioligand from rat brain membranes; conditions: for Ki^δ/Ki^μ (selectivity for μ versus δ receptors): ratio of binding constants; for Ki: δ-selective radioligand 1.0 nM, Cheng-Prusoff, means of three determinations ± SEM
T3 construct: from tissue; host or cells: rat brain membranes (cerebellum removed), Sprague-Dawley
From the text: as §1

[4] = biological target: μ opioid receptors (Cavia porcellus, UniProt P97266); assay: GPI assay: inhibition of electrically evoked contractions of the guinea pig ileum; type: cell-based; conditions: means of 3-6 determinations ± SEM, normalized to [Leu5]enkephalin standard, read-out: IC50 in the GPI assay (agonist potency)
Method: as §2, §3

T2 sequence (P32300 whole entry): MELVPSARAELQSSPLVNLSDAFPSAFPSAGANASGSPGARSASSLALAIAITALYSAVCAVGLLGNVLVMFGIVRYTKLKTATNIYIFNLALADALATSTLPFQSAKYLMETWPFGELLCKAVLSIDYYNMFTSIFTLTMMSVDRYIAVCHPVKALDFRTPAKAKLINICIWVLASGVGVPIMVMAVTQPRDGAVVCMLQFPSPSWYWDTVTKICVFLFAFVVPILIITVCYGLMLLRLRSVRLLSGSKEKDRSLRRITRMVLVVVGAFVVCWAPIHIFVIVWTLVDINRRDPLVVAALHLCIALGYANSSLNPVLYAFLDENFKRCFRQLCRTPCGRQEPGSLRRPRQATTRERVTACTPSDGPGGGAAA
μ opioid receptors, sequence (P97266 whole entry, looked up): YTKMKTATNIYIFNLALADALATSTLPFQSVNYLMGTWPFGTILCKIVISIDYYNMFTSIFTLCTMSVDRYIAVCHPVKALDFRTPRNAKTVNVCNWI
T1 sequence (P33535 whole entry): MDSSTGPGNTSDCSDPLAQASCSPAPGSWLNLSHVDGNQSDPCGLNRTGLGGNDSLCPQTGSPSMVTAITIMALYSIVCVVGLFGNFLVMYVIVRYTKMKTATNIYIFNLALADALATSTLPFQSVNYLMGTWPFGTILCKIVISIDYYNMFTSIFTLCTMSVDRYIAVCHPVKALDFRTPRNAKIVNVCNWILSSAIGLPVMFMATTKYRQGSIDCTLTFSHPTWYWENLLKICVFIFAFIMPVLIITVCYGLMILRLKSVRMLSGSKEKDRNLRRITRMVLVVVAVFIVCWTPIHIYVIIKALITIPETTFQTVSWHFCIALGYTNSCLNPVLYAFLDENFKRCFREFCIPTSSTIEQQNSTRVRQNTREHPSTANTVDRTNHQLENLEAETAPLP
T3 sequence (P33533 whole entry): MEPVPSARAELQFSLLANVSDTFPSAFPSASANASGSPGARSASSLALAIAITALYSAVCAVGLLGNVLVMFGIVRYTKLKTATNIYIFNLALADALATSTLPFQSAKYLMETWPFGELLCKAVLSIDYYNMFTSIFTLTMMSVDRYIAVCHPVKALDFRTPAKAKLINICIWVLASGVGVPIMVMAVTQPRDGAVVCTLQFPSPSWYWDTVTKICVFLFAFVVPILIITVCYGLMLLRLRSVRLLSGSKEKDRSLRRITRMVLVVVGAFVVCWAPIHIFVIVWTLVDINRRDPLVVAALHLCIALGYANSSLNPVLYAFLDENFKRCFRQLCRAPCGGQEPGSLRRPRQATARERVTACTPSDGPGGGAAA

Structure (SMILES)	Ki [1]	Ke in the MVD assay, antagonist potency against DPDPE [2]	Ke in the MVD assay, antagonist potency against [D-Ala2]deltorphin I [2]	Ke in the MVD assay, antagonist potency against [Leu5]enkephalin [2]	Ki^δ/Ki^μ (selectivity for μ versus δ receptors) [3]	Ki [3]	IC50 [4]
CN[C@@H](Cc1ccc(O)cc1)C(=O)N[C@@H]1CCCNC(=O)CNC(=O)[C@H]2CCCN2C(=O)[C@H](Cc2ccc3ccccc3c2)NC1=O [Example 1, Tyr(NMe)-c[-D-Orn-2-Nal-D-Pro-Gly-]] (HELM PEPTIDE1{[meY].[O=C([C@@H](CCCN[*:3])N[*:1])[*:2]].[O=C([C@H](Cc1ccc2ccccc2c1)N[*:1])[*:2]].[dP].G}$PEPTIDE1,PEPTIDE1,2:R3-5:R2$$$V2.0)	1.7 ± 0.15 nM	45.9 ± 2.8	38.8 ± 5.9	30.8 ± 1.5	0.765	1.3 ± 0.19 nM	92.5 nM
CN1CC(=O)NCCC[C@@H](NC(=O)[C@@H](N)Cc2ccc(O)cc2)C(=O)N[C@@H](Cc2ccc3ccccc3c2)C(=O)N2CCC[C@@H]2C1=O [Example 2, H-Tyr-c[-D-Orn-2-Nal-D-Pro-Sar-]] (HELM PEPTIDE1{Y.[O=C([C@@H](CCCN[*:3])N[*:1])[*:2]].[O=C([C@H](Cc1ccc2ccccc2c1)N[*:1])[*:2]].[dP].[Sar]}$PEPTIDE1,PEPTIDE1,2:R3-5:R2$$$V2.0)	14.8 ± 0.7 nM	11.2 ± 2.1	7.81 ± 1.90	17.0 ± 3.60	0.163	2.41 ± 0.34 nM	159 nM
Cc1cc(O)cc(C)c1C[C@H](N)C(=O)N[C@@H]1CCCNC(=O)CNC(=O)[C@H]2CCCN2C(=O)[C@H](Cc2ccc3ccccc3c2)NC1=O [Example 3, H-Dmt-c[-D-Orn-2-Nal-D-Pro-Gly-]] (H-[Dmt][dOrn][2Nal][dP]G; lactam 2-C)	0.46 ± 0.022 nM	2.13 ± 0.51	3.37 ± 0.59	3.74 ± 1.00	0.993	0.457 ± 0.022 nM	7.88 nM
Cc1cc(O)cc(C)c1C[C@H](N)C(=O)N[C@@H]1CCCNC(=O)CN(C)C(=O)[C@H]2CCCN2C(=O)[C@H](Cc2ccc3ccccc3c2)NC1=O [Example 4, H-Dmt-c[-D-Orn-2-Nal-D-Pro-Sar-]] (H-[Dmt][dOrn][2Nal][dP][Sar]; lactam 2-C)		16.4					14.5 nM
C[C@H]1NC(=O)[C@H]2CCCN2C(=O)[C@H](Cc2ccc3ccccc3c2)NC(=O)[C@H](NC(=O)[C@@H](N)Cc2ccc(O)cc2)CCCNC1=O [Example 5, H-Tyr-c[-D-Orn-2-Nal-D-Pro-D-Ala-]] (HELM PEPTIDE1{Y.[O=C([C@@H](CCCN[*:3])N[*:1])[*:2]].[O=C([C@H](Cc1ccc2ccccc2c1)N[*:1])[*:2]].[dP].[dA]}$PEPTIDE1,PEPTIDE1,2:R3-5:R2$$$V2.0)	72 ± 22 nM	5.35 ± 0.42	5.99 ± 1.30		0.0105	0.755 ± 0.125 nM	600 nM
CC1(C)NC(=O)[C@H]2CCCN2C(=O)[C@H](Cc2ccc3ccccc3c2)NC(=O)[C@H](NC(=O)[C@@H](N)Cc2ccc(O)cc2)CCCNC1=O [Example 6, H-Tyr-c[-D-Orn-2-Nal-D-Pro-Aib-]] (HELM PEPTIDE1{Y.[O=C([C@@H](CCCN[*:3])N[*:1])[*:2]].[O=C([C@H](Cc1ccc2ccccc2c1)N[*:1])[*:2]].[dP].[Aib]}$PEPTIDE1,PEPTIDE1,2:R3-5:R2$$$V2.0)		31.6 ± 2.9	55.8 ± 3.8				451 nM
CN1C(=O)[C@H]2CCCN2C(=O)[C@H](Cc2ccc3ccccc3c2)NC(=O)[C@H](NC(=O)[C@@H](N)Cc2ccc(O)cc2)CCCNC(=O)C1(C)C [Example 7, H-Tyr-c[-D-Orn-2-Nal-D-Pro-MeAib-]] (H-Y[dOrn][2Nal][dP][NMeAib]; lactam 2-C)	29.2 ± 5.2 nM	370 ± 48	480 ± 84		0.366	10.7 ± 5.5 nM	228 nM
CC(C)[C@H]1NC(=O)[C@H]2CCCN2C(=O)[C@H](Cc2ccc3ccccc3c2)NC(=O)[C@H](NC(=O)[C@@H](N)Cc2ccc(O)cc2)CCCNC1=O [Example 8, H-Tyr-c[-D-Orn-2-Nal-D-Pro-D-Val-]] (HELM PEPTIDE1{Y.[O=C([C@@H](CCCN[*:3])N[*:1])[*:2]].[O=C([C@H](Cc1ccc2ccccc2c1)N[*:1])[*:2]].[dP].[dV]}$PEPTIDE1,PEPTIDE1,2:R3-5:R2$$$V2.0)		20.9 ± 1.5	26.1 ± 2.8				536 nM
CC[C@@H](C)[C@H]1NC(=O)[C@H]2CCCN2C(=O)[C@H](Cc2ccc3ccccc3c2)NC(=O)[C@H](NC(=O)[C@@H](N)Cc2ccc(O)cc2)CCCNC1=O [Example 9, H-Tyr-c[-D-Orn-2-Nal-D-Pro-D-Ile-]] (HELM PEPTIDE1{Y.[O=C([C@@H](CCCN[*:3])N[*:1])[*:2]].[O=C([C@H](Cc1ccc2ccccc2c1)N[*:1])[*:2]].[dP].[dI]}$PEPTIDE1,PEPTIDE1,2:R3-5:R2$$$V2.0)		4.88 ± 0.94	7.63 ± 1.48				815 nM
Cc1cc(O)cc(C)c1C[C@H](N)C(=O)N[C@@H]1CCCNC(=O)[C@@H](C)NC(=O)[C@H]2CCCN2C(=O)[C@H](Cc2ccc3ccccc3c2)NC1=O [Example 10, H-Dmt-c[-D-Orn-2-Nal-D-Pro-D-Ala-]] (H-[Dmt][dOrn][2Nal][dP][dA]; lactam 2-C)		0.577 ± 0.022	0.319 ± 0.091				10.4 nM
N[C@@H](Cc1ccc(O)cc1)C(=O)N[C@@H]1CCCCNC(=O)CNC(=O)[C@H]2CCCN2C(=O)[C@H](Cc2ccc3ccccc3c2)NC1=O [H-Tyr-c[-D-Lys-2-Nal-D-Pro-Gly-], reference compound] (HELM PEPTIDE1{Y.[dK].[O=C([C@H](Cc1ccc2ccccc2c1)N[*:1])[*:2]].[dP].G}$PEPTIDE1,PEPTIDE1,2:R3-5:R2$$$V2.0)	17.1 ± 2.6 nM	305 ± 52	305 ± 52	603 ± 174	3.66	62.6 ± 13.2 nM	609 nM
